In paper PMC4008261, “Rewiring of regenerated axons by combining treadmill training with semaphorin3A inhibition” (Molecular Brain, 2014):
pIC50: −log10 of the molar value.

How the values were obtained:
[1] = biological target: CDK5/p35 (Homo sapiens, UniProt Q00535); experiment: Kinase inhibition test; assay type: biochemical
From the text: (§1) Table 2 Pharmacological profile of SM-345431 (part 2) | column: IC50 (μm)

[2] = biological target: CaMKII; experiment: Kinase inhibition test; assay type: biochemical
From the text: as §1

[3] = biological target: EphA4 (Homo sapiens, UniProt P54764); experiment: Kinase inhibition test; assay type: biochemical
From the text: as §1

[4] = biological target: EphB2 (Homo sapiens, UniProt P29323); experiment: Kinase inhibition test; assay type: biochemical
From the text: as §1

[5] = biological target: EphB4 (Homo sapiens, UniProt P54760); experiment: Kinase inhibition test; assay type: biochemical
From the text: as §1

[6] = biological target: FGFR1 (Homo sapiens, UniProt P11362); experiment: Kinase inhibition test; assay type: biochemical
From the text: as §1

[7] = biological target: FGFR2 (Homo sapiens, UniProt P21802); experiment: Kinase inhibition test; assay type: biochemical
From the text: as §1

[8] = biological target: FGFR4 (Homo sapiens, UniProt P22455); experiment: Kinase inhibition test; assay type: biochemical
From the text: as §1

[9] = biological target: Fes (Homo sapiens, UniProt P07332); experiment: Kinase inhibition test; assay type: biochemical
From the text: as §1

[10] = biological target: Flt1 (Homo sapiens, UniProt P17948); experiment: Kinase inhibition test; assay type: biochemical
From the text: as §1

[11] = biological target: Flt3 (Homo sapiens, UniProt P36888); experiment: Kinase inhibition test; assay type: biochemical
From the text: as §1

[12] = biological target: Fyn (Homo sapiens, UniProt P06241); experiment: Kinase inhibition test; assay type: biochemical
From the text: as §1

[13] = biological target: GSK3β (Homo sapiens, UniProt P49841); experiment: Kinase inhibition test; assay type: biochemical
From the text: as §1

[14] = biological target: KDR (Homo sapiens, UniProt P35968); experiment: Kinase inhibition test; assay type: biochemical
From the text: as §1

[15] = biological target: MAPK2 (Homo sapiens, UniProt P28482); experiment: Kinase inhibition test; assay type: biochemical
From the text: as §1

[16] = biological target: MEK4 (Homo sapiens, UniProt P45985); experiment: Kinase inhibition test; assay type: biochemical
From the text: as §1

[17] = biological target: MKK6 (Homo sapiens, UniProt P52564); experiment: Kinase inhibition test; assay type: biochemical
From the text: as §1

[18] = biological target: PAK4 (Homo sapiens, UniProt O96013); experiment: Kinase inhibition test; assay type: biochemical
From the text: as §1

[19] = biological target: PKBβ (Homo sapiens, UniProt P31751); experiment: Kinase inhibition test; assay type: biochemical
From the text: as §1

[20] = biological target: SAPK2a (Homo sapiens, UniProt Q16539); experiment: Kinase inhibition test; assay type: biochemical
From the text: as §1

[21] = biological target: TrkA (Homo sapiens, UniProt P04629); experiment: Kinase inhibition test; assay type: biochemical
From the text: as §1

[22] = biological target: TrkB (Homo sapiens, UniProt Q16620); experiment: Kinase inhibition test; assay type: biochemical
From the text: as §1

[23] = biological target: cSRC (Homo sapiens, UniProt P12931); experiment: Kinase inhibition test; assay type: biochemical
From the text: as §1

[24] = test system: SCT adult rats; experiment: Kinematic analysis before and after re-transection; assay type: in vivo, rat
Description: A total of 53 adult female Sprague-Dawley rats (200-250 g, 10-12 weeks old) were used in this study (3 rats died during the experimental period and were excluded from the statistical analysis). All procedures were approved by the experimental animal care committee of Keio University, School of Medicine and Murayama Medical Center (approval #12-8). All rats were anesthetized with an intraperitoneal injection of ketamine (100 mg/kg)/xylazine (10 mg/kg). The spinal cord at the level of the T10 lamina was exposed by T10 laminectomy, and the dorsal dura mater was opened. The exposed spinal cord was cut along the inner edge of the vertebra with a sharp micro-scissor. […] Kinematic data were recorded using similar procedures prior to re-transection surgery (on the same day) and on the day following re-transection surgery. […]
To evaluate the locomotor capability of SCT rats in detail, the aforementioned robotic device was employed. Each robotic arm tracked the two-dimensional movement of the ankle, and the trajectory of the ankle movement was then recorded on a computer for kinematic analyses. […] Briefly, the ankle trajectory in each plane was recorded by the robotic arm and a computer. […] All kinematic characteristics were obtained when TO and PC were identified; as a result, parameters such as the duration phase, the swing phase of the step cycle and the length and height of the step were calculated. […]

Chain of EphA4 (P54764 20-986, species assumed): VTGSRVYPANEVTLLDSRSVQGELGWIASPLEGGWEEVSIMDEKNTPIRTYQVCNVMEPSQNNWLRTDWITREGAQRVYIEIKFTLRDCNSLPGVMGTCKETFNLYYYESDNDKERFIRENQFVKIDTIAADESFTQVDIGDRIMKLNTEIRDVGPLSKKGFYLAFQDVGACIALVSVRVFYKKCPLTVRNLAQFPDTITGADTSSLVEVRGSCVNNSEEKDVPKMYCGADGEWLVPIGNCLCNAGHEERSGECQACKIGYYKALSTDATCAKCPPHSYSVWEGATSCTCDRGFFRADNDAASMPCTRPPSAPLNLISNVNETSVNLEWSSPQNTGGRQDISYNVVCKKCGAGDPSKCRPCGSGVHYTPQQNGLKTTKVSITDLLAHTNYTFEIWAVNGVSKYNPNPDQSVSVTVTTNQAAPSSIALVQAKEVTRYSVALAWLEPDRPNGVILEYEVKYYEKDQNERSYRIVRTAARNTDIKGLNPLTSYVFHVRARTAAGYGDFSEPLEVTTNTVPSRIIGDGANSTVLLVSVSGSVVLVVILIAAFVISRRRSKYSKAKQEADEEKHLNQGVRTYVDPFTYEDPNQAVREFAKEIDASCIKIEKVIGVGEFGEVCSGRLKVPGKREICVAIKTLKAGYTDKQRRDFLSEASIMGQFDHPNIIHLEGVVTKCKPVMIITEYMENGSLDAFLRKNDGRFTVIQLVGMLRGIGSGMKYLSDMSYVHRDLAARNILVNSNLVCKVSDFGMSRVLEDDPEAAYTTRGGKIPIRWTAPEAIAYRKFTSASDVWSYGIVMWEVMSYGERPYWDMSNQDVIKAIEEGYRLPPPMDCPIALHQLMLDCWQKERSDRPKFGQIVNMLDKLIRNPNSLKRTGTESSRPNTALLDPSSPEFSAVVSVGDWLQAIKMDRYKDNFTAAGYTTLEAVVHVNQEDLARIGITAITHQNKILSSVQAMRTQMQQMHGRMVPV
Chain of PAK4 (O96013 whole entry, species assumed): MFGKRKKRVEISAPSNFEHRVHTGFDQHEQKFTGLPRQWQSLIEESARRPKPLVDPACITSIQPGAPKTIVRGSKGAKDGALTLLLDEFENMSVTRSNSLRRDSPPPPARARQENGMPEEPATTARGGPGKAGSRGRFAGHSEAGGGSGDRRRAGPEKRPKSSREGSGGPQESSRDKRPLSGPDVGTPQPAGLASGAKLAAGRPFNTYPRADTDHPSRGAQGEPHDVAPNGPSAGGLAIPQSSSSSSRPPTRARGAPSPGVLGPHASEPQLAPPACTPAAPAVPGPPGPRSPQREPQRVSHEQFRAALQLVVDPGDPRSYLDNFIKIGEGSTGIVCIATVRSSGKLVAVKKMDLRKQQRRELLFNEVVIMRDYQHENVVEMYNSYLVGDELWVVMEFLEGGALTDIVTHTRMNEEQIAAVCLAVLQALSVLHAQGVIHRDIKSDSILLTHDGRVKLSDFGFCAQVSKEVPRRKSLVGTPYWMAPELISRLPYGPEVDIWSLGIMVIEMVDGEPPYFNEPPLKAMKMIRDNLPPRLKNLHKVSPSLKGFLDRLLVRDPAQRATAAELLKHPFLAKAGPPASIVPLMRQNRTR
Chain of SAPK2a (Q16539 whole entry, species assumed): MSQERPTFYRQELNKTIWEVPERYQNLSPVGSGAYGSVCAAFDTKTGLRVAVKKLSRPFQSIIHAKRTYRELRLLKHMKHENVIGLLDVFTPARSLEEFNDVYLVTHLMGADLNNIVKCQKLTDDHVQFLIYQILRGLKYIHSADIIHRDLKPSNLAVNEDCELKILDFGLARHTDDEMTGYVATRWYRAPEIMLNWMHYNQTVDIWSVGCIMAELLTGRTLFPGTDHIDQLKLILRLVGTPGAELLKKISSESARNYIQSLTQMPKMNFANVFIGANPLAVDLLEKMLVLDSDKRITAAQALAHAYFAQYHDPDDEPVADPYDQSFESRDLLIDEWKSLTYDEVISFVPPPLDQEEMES
Chain of FGFR1 (P11362 22-822, species assumed): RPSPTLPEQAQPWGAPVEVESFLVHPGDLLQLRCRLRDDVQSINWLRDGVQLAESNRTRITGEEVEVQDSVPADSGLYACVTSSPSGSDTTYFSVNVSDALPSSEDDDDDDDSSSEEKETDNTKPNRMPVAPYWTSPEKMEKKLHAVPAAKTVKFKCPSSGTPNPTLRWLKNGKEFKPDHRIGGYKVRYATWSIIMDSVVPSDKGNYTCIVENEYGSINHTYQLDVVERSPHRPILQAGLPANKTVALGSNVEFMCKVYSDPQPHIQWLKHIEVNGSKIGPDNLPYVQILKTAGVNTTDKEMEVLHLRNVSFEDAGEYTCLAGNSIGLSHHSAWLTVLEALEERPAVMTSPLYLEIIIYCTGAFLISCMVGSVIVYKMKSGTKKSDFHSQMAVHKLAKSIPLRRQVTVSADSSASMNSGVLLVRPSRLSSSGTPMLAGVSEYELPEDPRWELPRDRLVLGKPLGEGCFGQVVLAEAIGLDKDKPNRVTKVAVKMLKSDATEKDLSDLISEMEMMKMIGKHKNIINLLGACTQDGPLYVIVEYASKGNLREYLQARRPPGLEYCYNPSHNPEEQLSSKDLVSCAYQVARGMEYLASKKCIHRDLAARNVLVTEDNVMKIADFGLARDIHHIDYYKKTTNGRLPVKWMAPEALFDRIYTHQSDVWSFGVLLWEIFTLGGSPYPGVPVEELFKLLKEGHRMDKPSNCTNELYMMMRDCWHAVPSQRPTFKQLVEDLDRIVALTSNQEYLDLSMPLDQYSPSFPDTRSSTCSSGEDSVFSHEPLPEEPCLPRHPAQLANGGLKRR
Chain of Fes (P07332 whole entry, species assumed): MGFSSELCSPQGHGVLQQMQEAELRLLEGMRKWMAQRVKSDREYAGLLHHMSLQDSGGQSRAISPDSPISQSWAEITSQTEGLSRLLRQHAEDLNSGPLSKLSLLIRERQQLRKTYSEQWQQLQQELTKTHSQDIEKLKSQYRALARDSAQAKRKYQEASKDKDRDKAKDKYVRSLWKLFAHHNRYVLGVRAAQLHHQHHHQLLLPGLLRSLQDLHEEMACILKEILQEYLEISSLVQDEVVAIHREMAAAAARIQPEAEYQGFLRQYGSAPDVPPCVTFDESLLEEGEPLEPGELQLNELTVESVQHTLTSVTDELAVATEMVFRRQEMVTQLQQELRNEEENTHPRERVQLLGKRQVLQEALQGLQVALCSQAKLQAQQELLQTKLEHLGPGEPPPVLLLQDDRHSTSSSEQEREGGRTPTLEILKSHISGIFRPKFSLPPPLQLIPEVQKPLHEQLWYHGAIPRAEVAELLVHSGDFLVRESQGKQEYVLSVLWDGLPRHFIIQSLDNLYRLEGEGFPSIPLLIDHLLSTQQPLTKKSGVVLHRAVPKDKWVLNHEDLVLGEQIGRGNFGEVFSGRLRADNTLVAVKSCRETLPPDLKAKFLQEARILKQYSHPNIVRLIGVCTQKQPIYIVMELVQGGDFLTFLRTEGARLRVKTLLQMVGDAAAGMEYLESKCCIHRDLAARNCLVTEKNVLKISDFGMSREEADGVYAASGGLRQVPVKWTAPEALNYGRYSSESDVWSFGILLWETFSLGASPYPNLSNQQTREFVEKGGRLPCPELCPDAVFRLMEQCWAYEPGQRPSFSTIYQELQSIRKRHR
Chain of GSK3β (P49841 whole entry, species assumed): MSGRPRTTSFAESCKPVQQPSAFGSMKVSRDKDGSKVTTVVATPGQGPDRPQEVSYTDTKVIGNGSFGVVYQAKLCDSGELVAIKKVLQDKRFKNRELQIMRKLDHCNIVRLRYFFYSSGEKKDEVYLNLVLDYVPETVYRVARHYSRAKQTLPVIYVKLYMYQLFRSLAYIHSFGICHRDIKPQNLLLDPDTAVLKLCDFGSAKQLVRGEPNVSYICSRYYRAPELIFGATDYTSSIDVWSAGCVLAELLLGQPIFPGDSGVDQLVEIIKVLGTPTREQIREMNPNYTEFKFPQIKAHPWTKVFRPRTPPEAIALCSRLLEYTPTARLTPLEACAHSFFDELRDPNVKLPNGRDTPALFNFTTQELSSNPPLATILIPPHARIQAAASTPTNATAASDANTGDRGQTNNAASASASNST
Chain of MEK4 (P45985 whole entry, species assumed): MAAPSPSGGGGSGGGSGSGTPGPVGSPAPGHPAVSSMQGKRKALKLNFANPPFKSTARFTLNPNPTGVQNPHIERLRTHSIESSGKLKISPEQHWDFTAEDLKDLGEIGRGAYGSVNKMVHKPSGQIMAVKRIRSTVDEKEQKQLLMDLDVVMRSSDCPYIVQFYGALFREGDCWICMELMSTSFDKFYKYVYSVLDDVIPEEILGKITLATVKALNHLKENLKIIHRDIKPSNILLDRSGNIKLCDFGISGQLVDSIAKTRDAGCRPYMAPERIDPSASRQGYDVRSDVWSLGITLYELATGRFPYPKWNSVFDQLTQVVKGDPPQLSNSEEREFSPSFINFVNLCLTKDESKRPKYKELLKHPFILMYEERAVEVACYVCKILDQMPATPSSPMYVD
Chain of PKBβ (P31751 whole entry, species assumed): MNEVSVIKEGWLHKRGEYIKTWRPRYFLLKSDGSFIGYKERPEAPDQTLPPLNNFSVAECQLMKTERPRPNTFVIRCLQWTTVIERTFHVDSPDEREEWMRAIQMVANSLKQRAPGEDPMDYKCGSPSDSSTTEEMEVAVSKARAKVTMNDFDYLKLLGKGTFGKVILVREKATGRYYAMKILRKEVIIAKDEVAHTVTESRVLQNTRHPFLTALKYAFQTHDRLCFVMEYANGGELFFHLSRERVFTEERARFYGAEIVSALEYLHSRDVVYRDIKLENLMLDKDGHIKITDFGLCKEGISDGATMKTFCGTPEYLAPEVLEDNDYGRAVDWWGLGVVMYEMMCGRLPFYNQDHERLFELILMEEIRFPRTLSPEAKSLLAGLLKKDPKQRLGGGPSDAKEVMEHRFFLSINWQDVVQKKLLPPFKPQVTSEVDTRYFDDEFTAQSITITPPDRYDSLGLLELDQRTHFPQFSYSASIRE

How did the pIC50 [1] turn out when `CC(=O)c1cc2c(=O)c3c(C(=O)O)c(O)c(O)cc3oc2c(C(C)=O)c1-c1coc2cc(O)c(O)c(C(=O)O)c2c1=O` [SM-345431, Vinaxanthone] was run?
The pIC50 was < 5.00.

What about the pIC50 [2] of the same molecule?
Its pIC50 is < 5.00.

And the pIC50 [3]?
The pIC50 was 6.10.

And the pIC50 [4]?
The pIC50 was 6.17.

And the pIC50 [5]?
Its pIC50 is < 5.00.

And the pIC50 [6]?
The pIC50 was < 5.00.

What about the pIC50 [7] of the same molecule?
The pIC50 was < 5.00.

What about the pIC50 [8] of the same molecule?
Its pIC50 is 6.19.

And the pIC50 [9]?
Its pIC50 is < 5.00.

What about the pIC50 [10] of the same molecule?
The pIC50 was < 5.00.

And the pIC50 [11]?
Its pIC50 is < 5.00.

And the pIC50 [12]?
Its pIC50 is < 5.00.

And the pIC50 [13]?
The pIC50 was < 5.00.

And the pIC50 [14]?
The pIC50 was < 5.00.

And the pIC50 [15]?
The pIC50 was < 5.00.

What about the pIC50 [16] of the same molecule?
Its pIC50 is < 5.00.

What about the pIC50 [17] of the same molecule?
The pIC50 was < 5.00.

And the pIC50 [18]?
The pIC50 was < 5.00.

And the pIC50 [19]?
Its pIC50 is < 5.00.

And the pIC50 [20]?
Its pIC50 is < 5.00.

And the pIC50 [21]?
Its pIC50 is < 5.00.

What about the pIC50 [22] of the same molecule?
Its pIC50 is < 5.00.

What about the pIC50 [23] of the same molecule?
The pIC50 was < 5.00.

What about the “step cycle area after re-transection” value ([24]; SM-345431 alone, re-transection 12 weeks after the initial injury) of the same molecule?
The value was “tended to be attenuated”.

What about the “step ability after re-transection” value ([24]; SM-345431 combined with treadmill training, average step height P < 0.01, maximum step height P < 0.05) of the same molecule?
Its value is “greater attenuations of step ability were observed”.
